From the NIST ThermoML archive (doi:10.1016/j.jct.2014.07.019)

Test: xn = mol fraction of the nth substance listed
Settings: 100 kPa, Liquid; for speed of sound: Frequency=3 MHz, Sing-around technique in a fixed-path interferometer; for mass density: Vibrating tube method

CCCCOCC(C)O (stereo not given) [1-butoxy-2-propanol] + CCCCO
Settings | mass density, 293.15 K [kg/m3] | mass density, 298.15 K [kg/m3] | mass density, 303.15 K [kg/m3] | mass density, 308.15 K [kg/m3] | mass density, 313.15 K [kg/m3] | speed of sound, 293.15 K [m/s] | speed of sound, 298.15 K [m/s] | speed of sound, 303.15 K [m/s] | speed of sound, 308.15 K [m/s] | speed of sound, 313.15 K [m/s]
x1 = 0.0519 | 815.814 | 811.979 | 808.09 | 804.168 | 800.279 | 1259.9 | 1243.7 | 1227.1 | 1210.6 | 1193
x1 = 0.0992 | 821.015 | 817.166 | 813.235 | 809.277 | 805.328 | 1262.1 | 1246.1 | 1229.4 | 1212.9 | 1194.8
x1 = 0.1522 | 826.515 | 822.607 | 818.628 | 814.607 | 810.63 | 1264.4 | 1248.7 | 1232 | 1215.4 | 1196.7
x1 = 0.2025 | 831.372 | 827.404 | 823.395 | 819.351 | 815.31 | 1266.4 | 1250.8 | 1234.1 | 1217.4 | 1198.4
x1 = 0.2533 | 835.963 | 831.953 | 827.91 | 823.833 | 819.767 | 1268.2 | 1252.7 | 1235.8 | 1219 | 1199.9
x1 = 0.3031 | 840.187 | 836.14 | 832.063 | 827.949 | 823.842 | 1269.8 | 1254.1 | 1237.2 | 1220.3 | 1201.2
x1 = 0.4039 | 847.844 | 843.734 | 839.592 | 835.411 | 831.226 | 1272.5 | 1256.4 | 1239.4 | 1222.4 | 1203.2
x1 = 0.4992 | 854.333 | 850.165 | 845.969 | 841.732 | 837.498 | 1274.5 | 1258.4 | 1241.2 | 1224 | 1204.8
x1 = 0.6055 | 860.746 | 856.533 | 852.278 | 847.986 | 843.678 | 1276.3 | 1260.1 | 1242.8 | 1225.4 | 1206.2
x1 = 0.7017 | 865.941 | 861.685 | 857.378 | 853.038 | 848.688 | 1277.4 | 1260.8 | 1243.5 | 1226.1 | 1207
x1 = 0.8058 | 871.007 | 866.701 | 862.345 | 857.961 | 853.562 | 1278.3 | 1261.3 | 1243.9 | 1226.4 | 1207.5
x1 = 0.852 | 873.053 | 868.741 | 864.367 | 859.962 | 855.538 | 1278.6 | 1261.3 | 1243.9 | 1226.3 | 1207.5
x1 = 0.8982 | 875.005 | 870.664 | 866.282 | 861.844 | 857.451 | 1278.8 | 1261.3 | 1243.9 | 1226.3 | 1207.5
x1 = 0.9565 | 877.407 | 873.039 | 868.667 | 864.216 | 859.743 | 1279 | 1261.5 | 1243.9 | 1226.3 | 1207.5
x1 = 1 | 879.031 | 874.632 | 870.204 | 865.737 | 861.241 | 1279 | 1260.9 | 1242.9 | 1224.9 | 1207
